Data from patent US11767303B2, “Compounds and methods for inhibiting viral replication and methods of treating and preventing flaviviral infections” (priority 2020, dated 2023).

Experiments:
3D organoids = test: Toxic effect on 3D organoids; assay type: cell-based, human; settings: 1.5 μM
Source text: Culturing of human iPSCs. Human iPSC F11350.1 culture was maintained in feed-free conditions using mTeSR1 medium (StemCell Technologies #85851) with 5× supplement (StemCell Technologies #85852). Cells were maintained on six-well plates coated with human embryonic stem cell-qualified Matrigel at a 1:60 dilution (Corning Catalog #354277) and passaged with ReLeSR (StemCell Technologies #05872). Cortical 3D organoids were generated based on the protocol described by Yoon et al. Yoon et al., “Reliability of Human Cortical Organoid Generation,” Nat. Methods. […] Briefly, iPSCs were dissociated with accutase (ThermoFisher #A1110501) and then plated at a density of 3×10^6 cells per well in AggreWell 800 24-well plate (StemCell Technologies #34811) in Essential 8™ medium (ThermoFisher #A1517001) supplemented with 10 μM rock inhibitor (Tocris #Y27632). The plate was centrifuged at 100×g for 3 min and incubated at 37° C. overnight. […]
To evaluate if JMX0207 protects organoids from ZIKV infections, a full-length infectious ZIKV clone expressing Venus fluorescent protein (ZIKV-Venus) was first generated. […] ZIKV infection was quantified by a plaque forming unit (PFU) assay at 5 dpi and by fluorescence imaging at 7 dpi, respectively.

ZIKV NS3 = test: Western blot of ZIKV NS3 and polyprotein precursor in infected A549 cells; assay type: cell-based, Zika virus; settings: MOI 0.1, 48 hrs
Protocol: (§1) FIGS. 6A-6C show mechanism of action studies. […] Viral titers were quantified using plaque forming assay 48 hrs post-infection. DMSO was added to control. N=3. ***, p<0.001. […] N=3. […] Right, Band intensities of PP and NS3 normalized to the GAPDH control (N=3). […] Li et al., “Existing Drugs as Broad-Spectrum and Potent Inhibitors for Zika Virus by Targeting NS2B-NS3 Interaction,” Cell Res. 27:1046-1064 (2017), which is hereby incorporated by reference in its entirety. At 48 hrs post-infection, cells were washed, harvested, and protected by protease inhibitor cocktail prior to lysis by SDS-PAGE loading buffer. Upon incubation at 95° C. for 10 min, sample was subjected to Western blot analysis with anti-ZIKV NS3 (GTX133309, GeneTex, Inc.) and anti-GAPDH (CB1001, EMD Millipore) as primary antibodies. Error bars in all panels represent the standard deviations at each condition.
Western Blot. Western blot was performed using anti-ZIKV NS3 (GTX133309, GeneTex, Inc.) and anti-GAPDH (CB1001, EMD Millipore) antibodies, as described previously. Li et al., “Existing Drugs as Broad-Spectrum and Potent Inhibitors for Zika Virus by Targeting NS2B-NS3 Interaction,” Cell Res. 27:1046-1064 (2017) and Brecher et al., “A Conformational Switch High-Throughput Screening Assay and Allosteric Inhibition of the Flavivirus NS2B-NS3 Protease,” PLoS Pathog. […]

ZIKV PRVABC59 = test: ZIKV viremia mouse model (A129 mice); assay type: in vivo; settings: 20 mg/kg/day oral gavage, day 3 post-infection, vs vehicle
Protocol: In vivo protection efficacy. All animal studies involving infectious ZIKV were conducted at an Animal Biosafety Level 2 (ABSL-2) facility at the Wadsworth Center with Institutional Biosafety and Animal Welfare Committee approval.
A group of four-week-old A129 mice were infected by subcutaneous injection with 1.7×10^5 PFU of the PRVABC59 strain. […] Mice were observed daily for signs of illness and mortality. Viremia on day 3 post-infection (pi) was determined by plaque forming assay, and statistical analysis was performed using the unpaired, two-tailed t-test (Prism).
Finally, the in vivo antiviral efficacy was evaluated using a viremia mouse model, as described previously. Zhang et al., “Characterization of the Contemporary Zika Virus in Immunocompetent Mice,” Hum. Vaccines Immunother. 12:3107-3109 (2016) and Larocca et al., “Vaccine Protection Against Zika Virus From Brazil,” Nature 536:474-478 (2016), both of which are hereby incorporated by reference in their entirety.

ZIKV = test: Time of addition experiment; assay type: cell-based, Zika virus; settings: 0.75 μM added post-infection, titers at 48 hrs
Protocol: as §1
Antiviral inhibitors are generally divided into two categories, entry and post-entry (replication), respectively.

[1] = Pharmacokinetics in B6 mice after oral gavage; settings: B6 mice, single oral dose 40 mg/kg, plasma
Source text: Pharmacokinetics. […] Fan et al., “Contributions of Hepatic and Intestinal Metabolism to the Disposition of Niclosamide, a Repurposed Drug with Poor Bioavailability,” Drug Metab. Dispos. 47:756-763 (2019), which is hereby incorporated by reference in its entirety. […] Student's t-test was used. P values<0.05 were considered statistically significant.

O=C(Nc1ccc([N+](=O)[O-])cc1Cl)c1cccc([N+](=O)[O-])c1O [JMX0207, N-(2-Chloro-4-nitrophenyl)-2-hydroxy-3-nitrobenzamide]
toxic effect on the 3D organoids (3D organoids): did not have any toxic effect | unprocessed viral polyprotein precursor (PP) (ZIKV NS3): dose-dependent increase of a protein with high molecular weight | viral NS3 protein production (ZIKV NS3): dose-dependent reduction of viral NS3 protein production | ZIKV-induced viremia (ZIKV PRVABC59): significant reduction in ZIKV-induced viremia | logP (LogP): 2.72 | reduction of ZIKV titer by time of addition (ZIKV): equally effective in reducing ZIKV titer even at 24 hrs post-infection | AUC0→∞ ± S.D. [1]: 2719 ± 1018 | Tmax ± S.D. [1]: 1.2 ± 0.5 h | T1/2 ± S.D. ([1]; 40 mg/kg): 11 ± 6.8 h | Cmax ([1]; read-out: Cmax ± S.D.): 145 µM
